Source: US5994041A, “Process for buffering concentrated aqueous slurries” (priority 1998, dated 1999)
“Also recorded” adds a separate entry of the source.

Assay: Electroacoustic sonic amplitude (ESA) as a function of pH
Type: physicochemical
Conditions: FD1 slurries

intrinsic electrokinetic charge	Structure (SMILES)
negative	CC1=NN(c2ccc(C(=O)O)cc2)C(=O)C1=CC=Cc1c(C)nn(-c2ccc(C(=O)O)cc2)c1O [FD1]

Same assay, conditions: FD1 versus FD2

Structure (SMILES)	lowest apparent pKa compared with FD2
CC1=NN(c2ccc(C(=O)O)cc2)C(=O)C1=CC=Cc1c(C)nn(-c2ccc(C(=O)O)cc2)c1O [FD1]	three pH units lower than that observed for FD2

Same assay, conditions: above pH 5, FIG. 2

solubility of the dye with increasing pH	Structure (SMILES)
marked increased solubility	CC1=NN(c2ccc(C(=O)O)cc2)C(=O)C1=CC=Cc1c(C)nn(-c2ccc(C(=O)O)cc2)c1O [FD1]

Assay: pH measurement of FD1 slurry on addition of buffering salt
Type: physicochemical
Conditions: 0.1 mole/L aqueous salt added to S1 slurry

Structure (SMILES)	effect of added buffering salt on slurry pH
CC(=O)O [sodium acetate]	increases the slurry pH to a significant extent; also recorded: significantly increases the slurry pH
O=C([O-])c1ccccc1O.[Na+] [sodium salicylate]	provides some pH control, but that the effect is less than that exhibited comparatively to the earlier examples

Assay: not given
Conditions: Texter, Langmuir, 8, 291 (1992); cited from earlier work

Structure (SMILES)	intrinsic electrokinetic charge
CC1=NN(c2ccc(C(=O)O)cc2)C(=O)C1=Cc1c(C)nn(-c2ccc(C(=O)O)cc2)c1O [FD2]	negative

Same assay, conditions: slurry in the absence of surfactant; Texter, Langmuir, 8, 291 (1992); cited from earlier work

Structure (SMILES)	S-shaped ESA transition over the pH interval
CC1=NN(c2ccc(C(=O)O)cc2)C(=O)C1=Cc1c(C)nn(-c2ccc(C(=O)O)cc2)c1O [FD2]	4-6

Assay: not given
Conditions: 18° C.; cited from earlier work

Structure (SMILES)	pKa
O=S(=O)(O)CCCNCCNCCCS(=O)(=O)O [N,N'-Bis(3-sulphopropyl) ethylenediamine]	6.65

Same assay, conditions: 20° C.; cited from earlier work

Structure (SMILES)	pKa	pKa2
O=S(=O)(Nc1ccccc1)c1ccccc1 [C6 H5 --SO2 NH--C6 H5]	8.31	
Cc1ccc(NS(=O)(=O)c2ccccc2)cc1 [p-CH3 --C6 H4 --NHSO2 --C6 H5]	8.64	
COc1ccc(NS(=O)(=O)c2ccccc2)cc1 [p-CH3 O--C6 H4 --NHSO2 --C6 H5]	8.70	
O=C(O)c1ccc(S(=O)(=O)Nc2ccccc2)cc1 [p-CO2 H--C6 H4 --SO2 NH--C6 H5]		7.75
CC(=O)c1ccc(S(=O)(=O)Nc2ccccc2)cc1 [p-COCH3 --C6 H4 --SO2 NH--C6 H5]	6.94	
NS(=O)(=O)c1ccc(Cl)cc1 [p-Cl--C6 H4 --SO2 NH2]	9.77	
NS(=O)(=O)c1ccc([N+](=O)[O-])cc1 [p-NO2 --C6 H4 --SO2 NH2]	9.14	

Same assay, conditions: 25° C.; cited from earlier work

Structure (SMILES)	pKa	pKa2	pKa1
O=C1NCCS(=O)(=O)N1	4.51		
O=S1(=O)CCCN1	11.39		
O=S(=O)(Nc1c(Cl)cc(Cl)cc1Cl)C(F)(F)F [2,4,6-trichloro-C6 H2 --NHSO2 CF3]	2.70		
O=S(=O)(Nc1ccc(Cl)cc1Cl)C(F)(F)F [2,4-dichloro-C6 H3 --NHSO2 CF3]	2.96		
O=S(=O)(Nc1ccc(F)cc1F)C(F)(F)F [2,4-difluoro-C6 H3 --NHSO2 CF3]	3.44		
O=S(=O)(Nc1ccc(Cl)cc1C(F)(F)F)C(F)(F)F [2-CF3-4-Cl--C6 H3 --NHSO2 CF3]	2.59		
Cc1cc(Cl)ccc1NS(=O)(=O)C(F)(F)F [2-CH3-4-Cl--C6 H3 --NHSO2 CF3]	3.90		
O=S(=O)(Nc1cccc(C(F)(F)F)c1)C(F)(F)F [3,3-CF3 --C6 H4 --NHSO2 CF3]	3.70		
OCc1c[nH]cn1 [4-Hydroxylmethylimidazole]	6.39		
Cc1c[nH]cn1 [4-Methylimidazole]	7.67		
O=C1CC(=O)NC(=O)N1 [Barbituric acid]	4.04		
O=S(=O)(Nc1ccccc1)C(F)F [C6 H5 --NHSO2 CF2 H]	6.19		
CC(=O)NS(=O)(=O)c1ccccc1 [C6 H5 --SO2 NHCOCH3]	4.72		
NNS(=O)(=O)c1ccccc1 [C6 H5 --SO2 NHNH2]	10.60		
O=S(=O)(NO)c1ccccc1 [C6 H5 --SO2 NHOH]	9.34		
CCS(=O)(=O)NC [CH3 CH2 SO2 NHCH3]	11.84		
CNS(C)(=O)=O [CH3 SO2 NHCH3]	11.79		
CS(=O)(=O)NS(C)(=O)=O [CH3 SO2 NHSO2 CH3]	1.36		
CN(C)CCN [Dimethylaminoethylamine]		6.50	
O=P(O)(O)OC(CO)CO [Glycerol-2-phosphoric acid]		6.65	
O=C(O)CNC(=O)c1ccccc1 [Hippuric acid]	3.64		
NS(=O)(=O)C(F)F [NH2 SO2 CF2 H]	8.06		
NS(=O)(=O)CF [NH2 SO2 CFH2]	9.32		
O=C(O)c1ccccc1C(=O)O [Phthalic acid]		5.41	
c1ccc2ncccc2c1 [Quinoline]	5.00		
CCN(CC)CCN(CC)CC [Tetraethylethylenediamine]		5.89	
OCCN(CCO)CCN(CCO)CCO [Tetrakis-(2-hydroxyethyl) ethylenediamine]		4.5	
O=C(O)C(Cl)(Cl)Cl [Trichloroacetic acid]	0.66		

Structure (SMILES)	pKa	pKa2	pKa1
O=c1[nH]c(=O)c2[nH]c(=O)[nH]c2[nH]1 [Uric acid]	5.83		
O=C1CS(=O)(=O)NC(=O)N1 [drawing 3]	2.88		
O=C1CS(=O)(=O)NC(=O)N1 [drawing 5]	11.00		
O=C(c1ccccc1)c1cccc(NS(=O)(=O)C(F)(F)F)c1 [m-C6 H5 CO--C6 H4 --NHSO2 CF3]	3.50		
O=C(c1ccccc1)c1cccc(NS(=O)(=O)CF)c1 [m-C6 H5 CO--C6 H4 --NHSO2 CFH2]	6.77		
CS(=O)(=O)Nc1cccc(C(=O)c2ccccc2)c1 [m-C6 H5 CO--C6 H4 --NHSO2 CH3]	8.19		
O=C(NO)c1cccc([N+](=O)[O-])c1 [m-NO2 --C6 H4 --CONHOH]	8.20		
NNc1cccc([N+](=O)[O-])c1 [m-NO2 --C6 H4 --NHNH2]	9.78		
CC(=O)NS(=O)(=O)Nc1cccc([N+](=O)[O-])c1 [m-NO2 --C6 H4 --NHSO2 NHCOCH3]	3.97		
NS(=O)(=O)c1cccc([N+](=O)[O-])c1 [m-NO2 --C6 H4 --SO2 NH2]	9.40		
O=[N+]([O-])c1cccc(S(=O)(=O)NO)c1 [m-NO2 --C6 H4 --SO2 NHOH]	8.60		
Nc1ccccc1C(=O)O [o-Aminobenzoic acid]	2.15		
O=C(NO)c1ccc(Br)cc1 [p-Br--C6 H4 --CONHOH]	8.61		
NS(=O)(=O)c1ccc(Br)cc1 [p-Br--C6 H4 --SO2 NH2]	9.87		
CC(=O)NS(=O)(=O)c1ccc(Br)cc1 [p-Br--C6 H4 --SO2 NHCOCH3]	4.52		
NNS(=O)(=O)c1ccc(Br)cc1 [p-Br--C6 H4 --SO2 NHNH2]	10.36		
O=S(=O)(NO)c1ccc(Br)cc1 [p-Br--C6 H4 --SO2 NHOH]	9.08		
O=C(c1ccccc1)c1ccc(NS(=O)(=O)C(F)(F)F)cc1 [p-C6 H5 CO--C6 H4 --NHSO2 CF3]	3.22		
Cc1ccc(C(=O)NO)cc1 [p-CH3 --C6 H4 --CONHOH]	8.99		
CC(=O)NS(=O)(=O)c1ccc(C)cc1 [p-CH3 --C6 H4 --SO2 NHCOCH3]	4.92		
Cc1ccc(S(=O)(=O)NN)cc1 [p-CH3 --C6 H4 --SO2 NHNH2]	10.71		
Cc1ccc(S(=O)(=O)NO)cc1 [p-CH3 --C6 H4 --SO2 NHOH]	9.40		
CCc1ccc(NS(=O)(=O)C(F)(F)F)cc1 [p-CH3 CH2 --C6 H4 --NHSO2 CF3]	4.82		
CC(=O)c1ccc(NS(=O)(=O)C(F)(F)F)cc1 [p-CH3 CO--C6 H4 --NHSO2 CF3]	3.29		
COc1ccc(NS(=O)(=O)C(F)(F)F)cc1 [p-CH3 O--C6 H4 --NHSO2 CF3]	4.90		
Cc1ccc(N)cc1 [p-Toluidine]	5.30		
O=C(O)/C=C(\CC(=O)O)C(=O)O [trans-Aconitic acid]		4.46	2.80
